The target of one experiment is T1, NPR-32 (Caenorhabditis elegans, UniProt O62403).
T1 sequence (O62403 1-440): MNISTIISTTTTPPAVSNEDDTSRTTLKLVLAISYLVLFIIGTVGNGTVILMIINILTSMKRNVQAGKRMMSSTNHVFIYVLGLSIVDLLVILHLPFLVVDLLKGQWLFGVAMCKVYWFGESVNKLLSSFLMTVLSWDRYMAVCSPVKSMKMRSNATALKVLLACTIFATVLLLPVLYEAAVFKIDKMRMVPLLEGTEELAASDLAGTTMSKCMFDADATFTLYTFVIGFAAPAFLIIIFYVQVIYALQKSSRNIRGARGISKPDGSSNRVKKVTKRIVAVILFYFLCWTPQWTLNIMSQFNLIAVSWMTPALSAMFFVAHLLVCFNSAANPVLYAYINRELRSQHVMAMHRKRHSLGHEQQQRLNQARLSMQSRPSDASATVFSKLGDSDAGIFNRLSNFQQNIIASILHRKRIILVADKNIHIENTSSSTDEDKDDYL
The experiment is described as follows: Saturation binding of [3H]CP55,940 to NPR-32 receptors. Also noted: species or system C. elegans. Particulars: saturation binding curve, worm membranes, read-out: apparent Kd. The protocol: (§1) Briefly, 75 μg of crude membrane preparations were resuspended in 300 μL of assay buffer (50 mM Tris-HCl, 2.5 mM EDTA, 5 mM MgCl2, 0.5% BSA, pH 7.5) in silanized glass tubes and preincubated with 5 µM JZL-195 for 30 min at 30 °C. […] CP55,940 for 75 min at 30 °C. After the incubation time, membrane suspensions were rapidly filtered through a 0.1% polyethyleneimine presoaked 96-well microplate bonded with GF/B glass fiber filters (UniFilter-96 GF/B, PerkinElmer Life Sciences) under vacuum and washed 12 times with 120 µL of washing buffer (50 mM Tris-HCl, 2.5 mM EDTA, 5 mM MgCl2, 0.5% BSA, pH 7.5). Filters were added with 50 µL of MicroScint20 scintillation liquid, and radioactivity was measured with the 1450 MicroBeta Trilux top counter (PerkinElmer Life Sciences). The results were analyzed with GraphPad Prism 5® and expressed as % of [^3H]CP55,940 binding. IC50 values of each compound were estimated from fitted nonlinear curves and were used to calculate the Ki values by applying the Cheng-Prusoff equation. Specific binding was determined using the npr-32(ok2541) mutant strain in which saturation binding was abolished. Importantly, normalizing against the NPR-19 null mutant strain- npr-19(ok2068), no saturation binding curve could be achieved.
However, no binding or other direct interactions between AEA and these GPCRs were reported. […]

The next experiment deals with NPR-19. The experiment in a line: [3H]CP55,940 binding normalized against NPR-19 null mutant npr-19(ok2068). Also on record: species or system C. elegans. Particulars: no saturation binding curve (data not shown). The protocol:
as §1

In the case of `CCCCCCC(C)(C)c1ccc([C@@H]2C[C@H](O)CC[C@H]2CCCO)c(O)c1` [CP55,940], the Kd on NPR-32 worked out at 2.5 ± 1.8 nM. Further, the “binding to NPR-19” value with NPR-19 is on record as “did not bind”.

The values above are taken from article PMC7564282, “Juniperonic Acid Biosynthesis is Essential in Caenorhabditis elegans Lacking Δ6 Desaturase (fat-3) and Generates New ω-3 Endocannabinoids” (Cells, 2020).
